We go through 4 compounds from patent US20220323408A1, “COMPOSITION USED FOR COMBATING METABOLIC DISEASES AND USES OF COMPOSITION” (Institute of Zoology, Chinese Academy of Sciences, priority 2019, published 2022).

The test system of data set [1] is primary human skeletal muscle cells induced insulin resistance. Nature of the data set: Western blot of primary human skeletal muscle cells with induced insulin resistance, 7 days. Type of data set: cell-based. Conditions: palmitic acid + TNFα 7 days, 100 mg/L A and/or 2 mg/L B on day 4, vs control group 3; for insulin sensitivity indicator phospho-Akt / insulin sensitivity indicator phospho-S6 / myosin heavy chain (MHC): single agents comparably weak. The protocol: In vitro human primary skeletal muscle cells were used in the experiment, the cells were divided into six groups: for control group 1, the same amount of DMSO solvent was administered for 7 days as a blank control; for control group 2, the same amount of bovine serum albumin (BSA) was administered for 7 days as a fat solvent control; for control group 3, palmitic acid (Pal) and TNFα were administered for 7 days as a high-fat and inflammation-induced insulin resistance control; for control group 4, palmitic acid (Pal) and TNFα were administered for 7 days and 100 mg/L of therapeutic agent A was administered on day 4; for control group 5, palmitic acid (Pal) and TNFα were administered for 7 days and 2 mg/L of therapeutic agent B was administered on day 4; for the experimental group, palmitic acid (Pal) and TNFα were administered for 7 days and 100 mg/L of therapeutic agent A and 2 mg/L of therapeutic agent B were administered on day 4; afterwards, protein Western blot analysis was performed on each group of samples, as shown in FIG. 47.
(In general: A western blot detects proteins with antibodies after separation by electrophoresis.)

Data set [2] relates to p38 and AMPK signaling pathways. Nature of the data set: Western blot of in vitro human primary skeletal muscle cells over 24 hours. Type of data set: cell-based. Conditions: 100 mg/L A and/or 2 mg/L B, single agents vs DMSO control, weaker or slower than A+B. The protocol:
In vitro human primary skeletal muscle cells were used in the test, the cells were divided into four groups, and each group had six time points. For the experimental group, 100 mg/L of therapeutic agent A and 2 mg/L of therapeutic agent B were administered; for the control group 1, 100 mg/L of therapeutic agent A was administered; for the control group 2, 2 mg/L of therapeutic agent B was administered; and for the control group 3, the same amount of DMSO solvent was used as a blank control. The experiment was conducted 24 hours in total.

In data set [3] the test system is diet-induced obesity (DIO) male mice. Nature of the data set: Body weight change in diet-induced obesity (DIO) mice, 10 days. Type of data set: in vivo. Conditions: 30 mg/kg A alone or 5 mg/kg B alone per day i.p. The protocol: In addition, the control group and the experimental group of the present invention all adopt intraperitoneal injections in the process. The injection volume starts at 4 μl/g of body weight and can be adjusted according to the dose, in which the therapeutic agent A in the experimental group (aspirin (trade name Aspirin) is used in the following examples) is diluted in PBS to a dose between 0.3 mg/kg and 120 mg/kg of body weight, the therapeutic agent B (trimetazidine (trade name Trimetazidine) is used in the following examples) is diluted in PBS to a dose between 0.05 mg/kg and 500 mg/kg of body weight. In the control group, the same amount of the therapeutic agent A or the same amount of the therapeutic agent B alone is usually used, or only the same amount of PBS solvent is used as a blank control. Twenty 6-week-old diet-induced obesity (Jackson Lab's Diet-Induced Obese, DIO) male mice with similar physical status were selected and then divided into four groups, and the number of mice in each group was 5. […] The body weight of each mouse was recorded daily.

Data set [4] relates to diabetic DIO mice. Nature of the data set: Body weight change in diabetic DIO mice, 4 weeks. Type of data set: in vivo. Conditions: 30 mg/kg A alone or 5 mg/kg B alone per day.
For data set [5], the system named is diabetic DIO mice. Nature of the data set: Serum indicators of hyperlipidemia, fatty liver and nitrogen metabolism in diabetic DIO mice. Type of data set: in vivo. Conditions: 4 weeks, 30 mg/kg A and/or 5 mg/kg B per day, vs blank control group 3. Here is the method:
Subsequent tests were performed on each group of mice that had completed the treatment of Example 8. Examples 9 and 10 detected two indicators related to obesity and hyperlipidemia: total cholesterol and LDL-cholesterol; Example 11 detected alanine aminotransferase (ALT), an indicator related to fatty liver disease; and Examples 12 and 13 detected two indicators related to nitrogen metabolism: albumin/globulin ratio and total protein.

Data set [6] has as its system pancreatic beta cells. Conditions: by reducing PGE2-mediated β-cell apoptosis; cited from earlier work.
Data set [7] deals with HFD (high-fat diet)-induced obesity and insulin resistance. Conditions: C57BL/6J mice; cited from earlier work.
A short description of data set [8]: LC-MS analysis of mouse serum 1 hour after administration. Type of data set: in vivo. Conditions: mice of control group 1 (30 mg/kg A); serum 1 hour later; LC-MS vs blank control group 3. Here is the method:
Mice were grouped and administered according to the same method as in Example 8, except that serum samples from each group of mice were subjected to liquid phase mass spectrometry (LC-MS, Waters XBridge C18 column and Xevo G2-XS) analysis 1 hour later, and the most prominent small molecule markers were taken out, as shown in FIG. 51.

The mark [9] stands for this setting: long-term administration (3 to 24 hours).
Where [10] appears, read: short-term administration (within 60 minutes).

With `COc1ccc(CN2CCNCC2)c(OC)c1OC` [therapeutic agent B, trimetazidine], in data set [1], the “cellular senescence indicator H3K9me3” value is “cannot achieve the same effect”, the “insulin sensitivity indicator phospho-Akt” value is “can also up-regulate”, the “insulin sensitivity indicator phospho-S6” value is recorded as “can also up-regulate” and the “myosin heavy chain (MHC)” value is recorded as “can also up-regulate”. In data set [2] (setting [9]), the PGC1a entry is listed as “could also down-regulate”, the phospho-ACC result was “could also down-regulate” and the phospho-p38 entry was “could also down-regulate”. In addition, in data set [2] (setting [10]), the PGC1a result is given as “could also up-regulate”, the phospho-ACC result was “could also up-regulate”, the phospho-AMPK entry is recorded as “could also up-regulate” and the phospho-p38 result is given as “could also up-regulate”. Besides, the “effect on the body weight” value in data set [3] is “almost no significant effect”. Also, the “effect on the body weight” value in data set [4] is “almost no obvious effect”. Further, in data set [5], the LDL-cholesterol result is “neither therapeutic agent A in control group 1 nor therapeutic agent B in control group 2 used alone was able to achieve significant therapeutic or restorative effects”, the “alanine aminotransferase (ALT)” value is on record as “neither therapeutic agent A in control group 1 nor therapeutic agent B in control group 2 used alone was able to achieve significant therapeutic or restorative effects”, the albumin/globulin ratio result is “neither therapeutic agent A in control group 1 nor therapeutic agent B in control group 2 used alone was able to achieve significant therapeutic or restorative effects” and the total cholesterol entry is listed as “neither therapeutic agent A in control group 1 nor therapeutic agent B in control group 2 used alone was able to achieve significant therapeutic or restorative effects”. Moreover, the total protein entry in data set [5] is “neither therapeutic agent A in control group 1 nor therapeutic agent B in control group 2 used alone was able to achieve significant therapeutic or restorative effects”.

With `CS(=O)(=O)Nc1ccc([N+](=O)[O-])cc1OC1CCCCC1` [NS-398], the β-cell dysfunction result in data set [6] is “reverse”.

Turning to `COc1ccc2c(c1)c(CC(=O)O)c(C)n2C(=O)c1ccc(Cl)cc1` [Indomethacin], in data set [7], the “HFD (high-fat diet)-induced obesity” value is recorded as “prevent” and the HFD-induced insulin resistance result was “prevent”.

As for `CC(=O)Oc1ccccc1C(=O)O` [therapeutic agent A, aspirin], in data set [1], the “cellular senescence indicator H3K9me3” value is on record as “can down-regulate”, the “insulin sensitivity indicator phospho-Akt” value is given as “can also up-regulate”, the “insulin sensitivity indicator phospho-S6” value is “can also up-regulate” and the “myosin heavy chain (MHC)” value is “can also up-regulate”. Also, in data set [2] (setting [9]), the PGC1a result was “could also down-regulate”, the phospho-ACC entry was “could also down-regulate” and the phospho-p38 result was “could also down-regulate”. Moreover, in data set [2] (setting [10]), the PGC1a entry is recorded as “could also up-regulate”, the phospho-ACC result is “could also up-regulate”, the phospho-AMPK entry is given as “could also up-regulate” and the phospho-p38 entry is reported as “could also up-regulate”. For the same compound, the “effect on the body weight” value in data set [3] is on record as “almost no significant effect”. Moreover, in data set [4], the “effect on the body weight” value is given as “almost no obvious effect”. Further, in data set [5], the LDL-cholesterol result is recorded as “neither therapeutic agent A in control group 1 nor therapeutic agent B in control group 2 used alone was able to achieve significant therapeutic or restorative effects”, the “alanine aminotransferase (ALT)” value is “neither therapeutic agent A in control group 1 nor therapeutic agent B in control group 2 used alone was able to achieve significant therapeutic or restorative effects”, the albumin/globulin ratio result is on record as “neither therapeutic agent A in control group 1 nor therapeutic agent B in control group 2 used alone was able to achieve significant therapeutic or restorative effects” and the total cholesterol result is reported as “neither therapeutic agent A in control group 1 nor therapeutic agent B in control group 2 used alone was able to achieve significant therapeutic or restorative effects”. The total protein result in data set [5] is on record as “neither therapeutic agent A in control group 1 nor therapeutic agent B in control group 2 used alone was able to achieve significant therapeutic or restorative effects”. The “formation of salicylate derivatives in serum” value in data set [8] is “can effectively form a variety of salicylate derivatives in serum”.
